This note sets out measurements from patent US8309126B2, “Dispersible bosentan tablet” (Actelion Pharmaceuticals, Ltd., priority 2005, dated 2012).

The nature of the data set: Solubility of compound I in water. In kind it is physicochemical. The source says: The bitter taste of compound I can also be overcome by using flavouring agents (1.5) and/or sweetening agents (1.6).

Take `COc1ccccc1Oc1c(NS(=O)(=O)c2ccc(C(C)(C)C)cc2)nc(-c2ncccn2)nc1OCCO` [compound I, 4-tert-butyl-N-[6-(2-hydroxy-ethoxy)-5-(2-methoxy-phenoxy)-2-(pyrimidin-2-yl)-pyrimidin-4-yl]-benzenesulfonamide]: for the setting “presence of an acidifying agent (1.4), tablet dispersed with water”, the “Effect of an acidifying agent on solubility of compound I” value was “decreases the solubility”. In addition, the Solubility in water result (water) is given as “practically insoluble”.
